Activity calls are given as the source filed them. The rule behind the calls is not given here.
Legend:
HT-1080 [1] = test: Cytotoxicity against human HT-1080 cells assessed as cell viability incubated for 24 hrs by CCK-8 assay; settings: HT-1080, 24 h
HT-1080 [2] = test: Induction of ferroptosis in human HT-1080 cells assessed as reduction in cell viability incubated for 24 hrs in presence of Fer-1 by CCK-8 assay; settings: HT-1080, 24 h
[3] = Selectivity index, ratio of IC50 for cytotoxicity against human HT-1080 cells assessed as cell viability incubated for 24 hrs by CCK-8 assay to IC50 for induction of ferroptosis in human HT-1080 cells assessed as reduction in cell viability incubated for 24 hrs […] by CCK-8 assay; assay type: functional
[4] = molecular target: T1, Phospholipid hydroperoxide glutathione peroxidase GPX4 (Homo sapiens, UniProt P36969); test: Binding affinity to human GPX4 assessed as dissociation constant by MST assay
T1 sequence (P36969 whole entry): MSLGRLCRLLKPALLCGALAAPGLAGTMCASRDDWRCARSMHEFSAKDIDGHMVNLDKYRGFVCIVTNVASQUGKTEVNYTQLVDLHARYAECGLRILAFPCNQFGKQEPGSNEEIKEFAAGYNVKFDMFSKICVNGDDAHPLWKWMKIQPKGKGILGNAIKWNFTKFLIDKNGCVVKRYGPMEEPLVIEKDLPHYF

HT-1080 [5] = test: Induction of ferroptosis in human HT-1080 cells assessed as increase in cellular ROS level at 0.5 uM incubated for 3 hrs by DCFH-DA staining based flow cytometry analysis; assay type: functional, cell-based
HT-1080 [6] = test: Induction of ferroptosis in human HT-1080 cells assessed as increase in cellular LPO level at 0.5 uM incubated for 3 hrs by BIODPY-C11 probe based flow cytometry analysis; assay type: functional, cell-based
HT-1080 [7] = test: Induction of morphological changes in human HT-1080 cells assessed as appearance of round shaped mitochondria by TEM analysis; assay type: functional, cell-based
HT-1080 [8] = test: Induction of morphological changes in human HT-1080 cells assessed as […] of mitochondria cristas by TEM analysis; assay type: functional, cell-based
HT-1080 [9] = test: Induction of ferroptosis in human HT-1080 cells assessed as increase in cellular ROS level at 0.1 uM incubated for 3 hrs by DCFH-DA staining based flow cytometry analysis; assay type: functional, cell-based
HT-1080 [10] = test: Induction of ferroptosis in human HT-1080 cells assessed as increase in cellular LPO level at 0.1 uM incubated for 3 hrs by BIODPY-C11 probe based flow cytometry analysis; assay type: functional, cell-based
HT-1080 [11] = test: Induction of ferroptosis in human HT-1080 cells assessed as increase in cellular MDA level at 0.1 uM incubated for 6 hrs; assay type: functional, cell-based

| Structure (SMILES) | IC50 (HT-1080 [2]) | IC50 (HT-1080 [1]) | Ratio IC50 [3] | also measured |
| --- | --- | --- | --- | --- |
| C#Cc1nc(C(=O)N(c2ccc(-c3cnco3)cc2)C(C(=O)NC2CCCCC2)c2csc3ccccc23)cs1 (stereo not given) | 3870 nM | 17 nM | 228 | – |
| C#Cc1nc(C(=O)N(c2ccc(-n3cccn3)cc2)C(C(=O)NC(C)(C)C)c2csc3ccccc23)cs1 (stereo not given) | 6830 nM | 239 nM | 29 | – |
| O=C(NCCc1ccccc1)C(c1csc2ccccc12)N(C(=O)c1ccc([N+](=O)[O-])s1)c1ccc(-c2cnco2)cc1 (stereo not given) | – | > 5000 nM | – | – |
| C=CC(=O)N(c1ccc(-c2cnco2)cc1)C(C(=O)NCCc1ccccc1)c1csc2ccccc12 (stereo not given) | 3750 nM | 64 nM | 58 | – |
| COC(=O)c1ccc([C@H]2c3[nH]c4ccccc4c3C[C@H](C(=O)OC)N2C(=O)CCl)cc1 | – | – | – | Kd [4]: 43.7 nM; Activity (HT-1080 [5]): Active; Activity (HT-1080 [6]): Active |
| C#Cc1nc(C(=O)N(c2ccc(C(F)(F)F)cc2)C(C(=O)NC(C)(C)C)c2csc3ccccc23)cs1 (stereo not given) | 8410 nM | 27 nM | 311 | – |
| C#Cc1nc(C(=O)N(c2ccc(-c3cnco3)cc2)C(C(=O)NC(C)(C)C)c2cccc3ccccc23)cs1 (stereo not given) | 8650 nM | 22 nM | 393 | – |
| C#Cc1nc(C(=O)N(c2ccc(-c3cnco3)cc2)C(C(=O)NC(C)(C)C)c2csc3ccccc23)cs1 (stereo not given) | 3050 nM | 70 nM | – | – |
| C#Cc1nc(C(=O)N(c2ccc(-n3cncn3)cc2)C(C(=O)NC(C)(C)C)c2csc3ccccc23)cs1 (stereo not given) | 4230 nM | 356 nM | 12 | – |
| O=C(NCCc1ccccc1)C(c1csc2ccccc12)N(C(=O)c1ccc([N+](=O)[O-])o1)c1ccc(-c2cnco2)cc1 (stereo not given) | – | > 5000 nM | – | – |
| C#CC(=O)N(c1ccc(-c2cnco2)cc1)C(C(=O)NCCc1ccccc1)c1csc2ccccc12 (stereo not given) | 4750 nM | 425 nM | 11 | – |
| O=C(NCCc1ccccc1)C(c1csc2ccccc12)N(C(=O)CCl)c1ccc(-c2cnco2)cc1 (stereo not given) | 4600 nM | 121 nM | 38 | Kd [4]: 24.7 nM; Activity (HT-1080 [7]): Active; Activity (HT-1080 [8]): Active; Activity (HT-1080 [9]): Active; Activity (HT-1080 [10]): Active; Activity (HT-1080 [11]): Active |
| C#Cc1nc(C(=O)N(c2ccc(-c3cnco3)cc2)C(C(=O)NCCc2ccccc2)c2csc3ccccc23)cs1 (stereo not given) | 9030 nM | 21 nM | 430 | – |
| C#Cc1nc(C(=O)N(c2ccc(-c3cnco3)cc2)C(C(=O)NCc2ccccc2)c2csc3ccccc23)cs1 (stereo not given) | 6120 nM | 32 nM | 191 | – |
| C#Cc1nc(C(=O)N(c2ccc(-n3ccnc3)cc2)C(C(=O)NC(C)(C)C)c2csc3ccccc23)cs1 (stereo not given) | 4760 nM | 345 nM | 14 | – |
| Cc1onc(C(=O)N(c2ccc(-c3cnco3)cc2)C(C(=O)NCCc2ccccc2)c2csc3ccccc23)c1[N+](=O)[O-] (stereo not given) | – | > 5000 nM | – | – |
| C#Cc1nc(C(=O)N(c2ccc(-c3cnco3)cc2)C(C(=O)NC(C)(C)C)C2CCCCC2)cs1 (stereo not given) | 8160 nM | 354 nM | 23 | – |
| O=C(NCCc1ccccc1)C(c1csc2ccccc12)N(C(=O)c1cc([N+](=O)[O-])[nH]n1)c1ccc(-c2cnco2)cc1 (stereo not given) | – | > 5000 nM | – | – |

Further lines, with some results ahead:

| IC50 (HT-1080 [2]) | Structure (SMILES) | IC50 (HT-1080 [1]) | Ratio IC50 [3] | also measured |
| --- | --- | --- | --- | --- |
| 6140 nM | C#Cc1nc(C(=O)N(c2ccc(-c3cnco3)cc2)C(C(=O)NC(C)(C)C)c2c[nH]cn2)cs1 (stereo not given) | 459 nM | 13 | – |
| 9430 nM | C#Cc1nc(C(=O)N(c2ccc(-c3cnco3)cc2)C(C(=O)NC(C)(C)C)c2cncs2)cs1 (stereo not given) | 500 nM | 17 | – |
| 6340 nM | C#Cc1nc(C(=O)N(c2ccc(-c3cnco3)cc2)C(C(=O)NC(C)(C)C)c2ccsc2)cs1 (stereo not given) | 207 nM | 30.6 | – |
| 6200 nM | C#Cc1nc(C(=O)N(c2ccc(-c3cnco3)cc2)C(C(=O)NC(C)(C)C)C2=CCCOC2)cs1 (stereo not given) | 415 nM | 15 | – |
| 6790 nM | C#Cc1nc(C(=O)N(c2ccc(-c3cnco3)cc2)C(C(=O)NC(C)(C)C)c2cccs2)cs1 (stereo not given) | 341 nM | 19.9 | – |
| 8160 nM | C#Cc1nc(C(=O)N(c2ccc(-c3cnco3)cc2)C(C(=O)NC(C)(C)C)c2ccncn2)cs1 (stereo not given) | 354 nM | 23 | – |
| 11700 nM | C#Cc1nc(C(=O)N(c2ccc(-c3cnco3)cc2)[C@H](C(=O)NC(C)(C)C)c2csc3ccccc23)cs1 | 12 nM | – | – |
| 7410 nM | C#Cc1nc(C(=O)N(c2ccc(-c3cnco3)cc2)C(C(=O)NC(C)(C)C)c2ccc[nH]2)cs1 (stereo not given) | 120 nM | 61.7 | – |
| 8420 nM | C#Cc1nc(C(=O)N(c2ccc(-c3cnco3)cc2)C(C(=O)NC(C)(C)C)c2c[nH]c3ccccc23)cs1 (stereo not given) | 98 nM | 86 | – |
| 7160 nM | C#Cc1nc(C(=O)N(c2ccc(-c3cnco3)cc2)C(C(=O)NC(C)(C)C)c2cc[nH]n2)cs1 (stereo not given) | 375 nM | 19 | – |
